Laboratory results: ChEMBL document CHEMBL5705887, “Distinct concentration-dependent effects of the polo-like kinase 1-specific inhibitor GSK461364A, including differential effect on apoptosis” (Cancer Res, 2009)
Active and inactive are the calls of the source. The rule behind the calls is not given here.

Experiments:
T-24 = experiment: Antiproliferative activity against human T24 cells assessed as viable cell signal at maximum growth inhibition incubated for 72 hrs by celltiter-glo assay relative to control; format: functional
Calu-3 = experiment: Antiproliferative activity against human Calu-3 cells assessed as growth inhibition incubated for 72 hrs by celltiter-glo assay; format: functional
PANC-1 = experiment: Antiproliferative activity against human PANC-1 cells assessed as viable cell signal at maximum growth inhibition incubated for 72 hrs by celltiter-glo assay relative to control; format: functional
ZR-75-1 = experiment: Antiproliferative activity against human ZR-75-1 cells assessed as viable cell signal at maximum growth inhibition incubated for 72 hrs by celltiter-glo assay relative to control; format: functional
NCI-H322M = experiment: Antiproliferative activity against human NCI-H322M cells assessed as of viable cell signal at minimum maximum cell growth incubated for 72 hrs by celltiter-glo assay relative to control; format: functional
MDA-MB-453 [1] = experiment: Antiproliferative activity against human MDA-MB-453 cells assessed as growth inhibition incubated for 72 hrs by celltiter-glo assay; format: functional
ASPC1 = experiment: Antiproliferative activity against human ASPC1 cells assessed as viable cell signal at maximum growth inhibition incubated for 72 hrs by celltiter-glo assay relative to control; format: functional
COLO 205 [2] = experiment: Antitumor activity against human COLO 205 cells xenografted in Nude mouse assessed as increase in pHH3 level at 50 mg/kg, ip measured at 24 hrs by immunohistochemistry analysis; format: functional, organism-based
SAOS-2 [3] = experiment: Antiproliferative activity against human SAOS-2 cells assessed as of viable cell signal at minimum maximum cell growth incubated for 72 hrs by celltiter-glo assay relative to control; format: functional
[4] = target: Fibroblast growth factor receptor 3 (Homo sapiens) (UniProt P22607); experiment: Inhibition of N-terminal his6-tagged recombinant human FGFR3 (447 to 761 residues) expressed in baculovirus Sf21 insect cells at 10 uM relative to control
RPMI-8226 = experiment: Antiproliferative activity against human RPMI-8226 cells assessed as growth inhibition incubated for 72 hrs by celltiter-glo assay; format: functional
MX1 = experiment: Antiproliferative activity against human MX1 cells assessed as viable cell signal at maximum growth inhibition incubated for 72 hrs by celltiter-glo assay relative to control; format: functional
COLO 205 [5] = experiment: Antitumor activity against human COLO 205 cells xenografted in Nude mouse assessed as tumor growth delay time at 50 mg/kg, ip administered every 2 to 4 days; format: functional; conditions: time 2-4 day
HeLa = experiment: Antiproliferative activity against human HeLa cells assessed as growth inhibition incubated for 72 hrs by celltiter-glo assay; format: functional
A2780 = experiment: Antiproliferative activity against human A2780 cells assessed as growth inhibition incubated for 72 hrs by celltiter-glo assay; format: functional
[6] = target: Calcium/calmodulin-dependent protein kinase type II subunit delta (Homo sapiens) (UniProt Q13557); experiment: Inhibition recombinant human CAMKII-delta at 10 uM relative to control
U2OS = experiment: Induction of mitotic arrest in human U2OS cells expressing fused cyclin B1-GFP at 10 to 250 nmol/L incubated for 24 hrs by image based analysis; format: functional, cell-based; conditions: dose 10-250 nmol/L
SK-MEL3 = experiment: Antiproliferative activity against human SK-MEL3 cells assessed as growth inhibition incubated for 72 hrs by celltiter-glo assay; format: functional
HCC1937 = experiment: Antiproliferative activity against human HCC1937 cells assessed as growth inhibition incubated for 72 hrs by celltiter-glo assay; format: functional
A549 [7] = experiment: Antiproliferative activity against human A549 cells assessed as viable cell signal at maximum growth inhibition incubated for 72 hrs by celltiter-glo assay relative to control; format: functional
HCT-116 = experiment: Antiproliferative activity against human HCT-116 cells assessed as viable cell signal at maximum growth inhibition incubated for 72 hrs by celltiter-glo assay relative to control; format: functional
HCC1954 [8] = experiment: Antiproliferative activity against human HCC1954 cells assessed as viable cell signal at maximum growth inhibition incubated for 72 hrs by celltiter-glo assay relative to control; format: functional
RKO = experiment: Antiproliferative activity against human RKO cells assessed as growth inhibition incubated for 72 hrs by celltiter-glo assay; format: functional
HT-29 [9] = experiment: Antiproliferative activity against human HT-29 cells assessed as of viable cell signal at minimum maximum cell growth incubated for 72 hrs by celltiter-glo assay relative to control; format: functional
HT-29 [10] = experiment: Induction of mitotic arrest in human HT-29 cells assessed as effect on pHH3 level at 10 to 250 nmol/L incubated for 19 hrs by ELISA analysis; format: functional, cell-based; conditions: dose 10-250 nmol/L
[11] = Cytotoxicity against human HUVEC cells assessed as inhibition of cell growth incubated for 72 hrs by celltiter-glo assay; format: toxicity, cell-based
COLO 205 [12] = experiment: Antiproliferative activity against human COLO 205 cells assessed as growth inhibition incubated for 72 hrs by celltiter-glo assay; format: functional
NCI-H522 = experiment: Antiproliferative activity against human NCI-H522 cells assessed as viable cell signal at maximum growth inhibition incubated for 72 hrs by celltiter-glo assay relative to control; format: functional
Panc 02.03 = experiment: Antiproliferative activity against human Panc 02.03 cells assessed as of viable cell signal at minimum maximum cell growth incubated for 72 hrs by celltiter-glo assay relative to control; format: functional
[13] = Antiproliferative activity against human PL45 cells assessed as growth inhibition incubated for 72 hrs by celltiter-glo assay; format: functional
SAOS-2 [14] = experiment: Antiproliferative activity against human SAOS-2 cells assessed as viable cell signal at maximum growth inhibition incubated for 72 hrs by celltiter-glo assay relative to control; format: functional
HT-1080 = experiment: Antiproliferative activity against human HT-1080 cells assessed as growth inhibition incubated for 72 hrs by celltiter-glo assay; format: functional
BT-474 = experiment: Antiproliferative activity against human BT-474 cells assessed as viable cell signal at maximum growth inhibition incubated for 72 hrs by celltiter-glo assay relative to control; format: functional
LoVo = experiment: Antiproliferative activity against human LoVo cells assessed as of viable cell signal at minimum maximum cell growth incubated for 72 hrs by celltiter-glo assay relative to control; format: functional
SJSA-1 = experiment: Antiproliferative activity against human SJSA-1 cells assessed as viable cell signal at maximum growth inhibition incubated for 72 hrs by celltiter-glo assay relative to control; format: functional
NCI-H1155 = experiment: Antiproliferative activity against human NCI-H1155 cells assessed as growth inhibition incubated for 72 hrs by celltiter-glo assay; format: functional
MIA PaCa-2 = experiment: Antiproliferative activity against human MIA PaCa-2 cells assessed as viable cell signal at maximum growth inhibition incubated for 72 hrs by celltiter-glo assay relative to control; format: functional
A549 [15] = experiment: Induction of mitotic arrest in human A549 cells assessed as effect on pHH3 level at 10 to 250 nmol/L incubated for 19 hrs by ELISA analysis; format: functional, cell-based; conditions: dose 10-250 nmol/L
MDA-MB-453 [16] = experiment: Antiproliferative activity against human MDA-MB-453 cells assessed as viable cell signal at maximum growth inhibition incubated for 72 hrs by celltiter-glo assay relative to control; format: functional
HCC1954 [17] = experiment: Antiproliferative activity against human HCC1954 cells assessed as growth inhibition incubated for 72 hrs by celltiter-glo assay; format: functional
LNCaP = experiment: Antiproliferative activity against human LNCaP cells assessed as of viable cell signal at minimum maximum cell growth incubated for 72 hrs by celltiter-glo assay relative to control; format: functional

Calcium/calmodulin-dependent protein kinase type II subunit delta (Homo sapiens), sequence (Q13557 whole entry, the tested form may be a part): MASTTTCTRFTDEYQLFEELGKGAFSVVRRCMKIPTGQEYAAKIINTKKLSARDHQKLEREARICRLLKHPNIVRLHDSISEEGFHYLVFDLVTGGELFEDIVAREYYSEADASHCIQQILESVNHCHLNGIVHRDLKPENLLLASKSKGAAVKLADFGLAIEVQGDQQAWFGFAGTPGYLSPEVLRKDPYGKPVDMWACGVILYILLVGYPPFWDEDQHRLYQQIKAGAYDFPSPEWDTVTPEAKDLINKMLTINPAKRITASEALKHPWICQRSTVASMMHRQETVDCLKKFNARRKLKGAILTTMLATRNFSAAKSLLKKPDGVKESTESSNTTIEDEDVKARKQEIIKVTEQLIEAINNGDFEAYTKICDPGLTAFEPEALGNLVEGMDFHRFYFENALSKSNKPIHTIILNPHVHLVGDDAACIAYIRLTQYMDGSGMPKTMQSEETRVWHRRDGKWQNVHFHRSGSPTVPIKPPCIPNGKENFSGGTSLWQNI
Fibroblast growth factor receptor 3 (Homo sapiens), sequence (P22607 23-806 limits assumed): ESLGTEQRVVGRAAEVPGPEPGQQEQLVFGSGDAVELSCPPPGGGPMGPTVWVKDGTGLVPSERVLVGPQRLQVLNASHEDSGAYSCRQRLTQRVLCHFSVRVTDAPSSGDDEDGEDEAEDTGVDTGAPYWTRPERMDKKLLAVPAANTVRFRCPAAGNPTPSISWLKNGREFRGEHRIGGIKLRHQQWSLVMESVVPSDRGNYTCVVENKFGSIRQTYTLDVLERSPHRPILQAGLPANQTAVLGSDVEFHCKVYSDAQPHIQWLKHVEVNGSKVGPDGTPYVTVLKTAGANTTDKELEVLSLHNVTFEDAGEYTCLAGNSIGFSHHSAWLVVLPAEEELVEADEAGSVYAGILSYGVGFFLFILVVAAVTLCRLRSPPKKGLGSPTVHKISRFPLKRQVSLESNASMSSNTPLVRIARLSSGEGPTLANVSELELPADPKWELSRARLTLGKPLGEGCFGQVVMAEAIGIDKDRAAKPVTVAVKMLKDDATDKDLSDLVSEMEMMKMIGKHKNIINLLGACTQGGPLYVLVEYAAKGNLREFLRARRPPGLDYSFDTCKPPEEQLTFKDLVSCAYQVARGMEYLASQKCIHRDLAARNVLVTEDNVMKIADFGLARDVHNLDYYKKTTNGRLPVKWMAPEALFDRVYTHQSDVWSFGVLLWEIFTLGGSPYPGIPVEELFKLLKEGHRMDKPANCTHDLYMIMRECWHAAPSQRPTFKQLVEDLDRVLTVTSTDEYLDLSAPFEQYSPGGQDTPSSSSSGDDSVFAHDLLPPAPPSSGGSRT

## C[C@@H](Oc1cc(-n2cnc3ccc(CN4CCN(C)CC4)cc32)sc1C(N)=O)c1ccccc1C(F)(F)F [GSK-461364]
T-24
  Emax: 692%
Calu-3
  GI50: 35.6 nM
PANC-1
  Emax: 530%
ZR-75-1
  Emax: 229%
NCI-H322M
  Emin: 260.3%
MDA-MB-453 [1]
  GI50: 13.4 nM
ASPC1
  Emax: 294%
COLO 205 [2]
  Activity: Active
SAOS-2 [3]
  Emin: 83.5%
[4]
  inhibition: 60%
RPMI-8226
  GI50: 22.5 nM
MX1
  Emax: 498%
COLO 205 [5]
  Time: 39 days
HeLa
  GI50: 21.8 nM
A2780
  GI50: 28.1 nM
[6]
  inhibition: 88%
U2OS
  Activity: inactive
SK-MEL3
  GI50: 17.6 nM
HCC1937
  GI50: 4790 nM
A549 [7]
  Emax: 632%
HCT-116
  Emax: 545%
HCC1954 [8]
  Emax: 280%
RKO
  GI50: 62.9 nM
HT-29 [9]
  Emin: 327.7%
HT-29 [10]
  Activity: Active
[11]
  IC50 at 72 h: 7 nM
COLO 205 [12]
  GI50: 14.2 nM
NCI-H522
  Emax: 264%
Panc 02.03
  Emin: 192%
[13]
  GI50: 21.9 nM
SAOS-2 [14]
  Emax: 403%
HT-1080
  GI50: 24.6 nM
BT-474
  Emax: 226%
LoVo
  Emin: 23.4%
SJSA-1
  Emax: 791%
NCI-H1155
  GI50: 14.4 nM
MIA PaCa-2
  Emax: 580%
A549 [15]
  Activity: Active
MDA-MB-453 [16]
  Emax: 489%
HCC1954 [17]
  GI50: 14.1 nM
LNCaP
  Emin: 99.3%
